{"source": "patent US7491501B2", "about": "“Methods for identifying modulators of intracellular aggregate formation” (Auburn University, priority 2003, dated 2009)", "tested_on": "26S proteasome", "assay": "In vitro deubiquitination assay of K63 polyubiquitinated tau with 26S proteasome", "format": "biochemical", "settings": "Ub-H 1 or 10 μM, 26S proteasome 40 or 80 nM, 2 h 37° C.", "description": "In Vitro Ubiquitination and Deubiquitination Assay—His-tagged tau construct was expressed in HEK 293 cells by calcium phosphate method. The cells were collected, washed with PBS and lysed with SDS lysis buffer. The lysate was immunoprecipitated with tau antibody and bound to secondary antibody coupled with agarose beads. Fifty microliters of the reaction buffer (50 mM Tris pH 7.5, 2.5 mM MgCl2, 2 mM DTT, 2 mM ATP) containing 100 ng El, 200 ng UbcH7 (E2), 100 μg TRAF6 (E3) and 5 μg of GST-WT Ub, or its mutants K29R, K48R, and K63R Ub was added to the immunoprecipitated tau. The beads were incubated at 37° C. for 2 h by continuous shaking, then washed three times with reaction buffer. The proteins were released by boiling for 2 min in SDS-PAGE sample buffer, electrophoresed on 7.5% SDS-PAGE and western blotted with antibody to ubiquitin and tau. For the in vitro deubiquitination assay, the ubiquitinated tau was treated with 26S proteasome (40 or 80 nM) in 30 μl of buffer containing 50 mM Tris-HCl, pH 7.5, 2 mM MgCl2, 2 mM ATP for 2 h at 37° C. The deubiquitination of tau by the 26S proteasome was blocked by the addition of ubiquitin aldehyde (Ub-H), an inhibitor of ubiquitin isopeptidases (1 or 10 μM). The samples were boiled in sample buffer, resolved by 7.5% SDS-PAGE and western blotted with anti-ubiquitin or anti-tau. […]", "data": [{"substance": "ubiquitin aldehyde [Ub-H]", "values": [{"measurement": "polyubiquitin degradation (deubiquitination of tau) by 26S proteasome", "value": "inhibited"}]}]}
